Data reported in PMC12263422, “Cryo-EM structure of the human THIK-1 K2P K^+ channel reveals a lower Y gate regulated by lipids and anesthetics” (Nature Structural & Molecular Biology, 2025).
Values joined by “and” are separate entries in the source; they are usually repeats but may differ in a detail not shown here. Equal entries are not always repeated. Where two headings read alike, the source gives them in different places. Values belong to the molecule of their own block, whether it stands above or below them.

Tests used:
[1] = molecular target: T1, THIK-1 T110A (Homo sapiens, UniProt Q9HB14, T110A); experiment: Inside-out excised patch recordings, oocytes, THIK-1 T110A mutant; type: cell-based
T1 construct: expressed in transfected cells; host or cells: Xenopus oocytes (mRNA injection)
T1 sequence (Q9HB14 1-408 T110A): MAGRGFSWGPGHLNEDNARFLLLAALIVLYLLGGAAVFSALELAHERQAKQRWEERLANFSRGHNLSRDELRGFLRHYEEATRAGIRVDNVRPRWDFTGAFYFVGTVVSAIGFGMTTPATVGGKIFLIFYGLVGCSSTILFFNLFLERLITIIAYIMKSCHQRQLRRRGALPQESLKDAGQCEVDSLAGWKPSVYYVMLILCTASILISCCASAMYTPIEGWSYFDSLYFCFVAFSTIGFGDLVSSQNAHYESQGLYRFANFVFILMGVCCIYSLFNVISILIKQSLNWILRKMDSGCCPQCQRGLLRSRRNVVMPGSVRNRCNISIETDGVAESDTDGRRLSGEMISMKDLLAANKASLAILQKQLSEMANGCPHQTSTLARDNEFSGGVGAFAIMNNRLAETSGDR
Description: Human K2P13.1 THIK-1 (GenBank accession number: NM_022054) and human K2P12.1 THIK-2 (NM_022055.1) were used in this study. For functional expression studies, the respective K^+ channel subtype coding sequences were subcloned into the oocyte expression vector pSGEM or the dual-purpose expression vector pFAW[41] and verified by sequencing. All mutant channels were obtained by site-directed mutagenesis and verified by sequencing. To increase surface expression and macroscopic currents, measurements of THIK-2 channels used a mutated ER retention motif, (R11A R12A R14A R15A R16A; THIK-2*)[20]. Vector DNA was linearized with NheI or MluI, and mRNA was synthesized in vitro using the SP6 or T7 AmpliCap Max High Yield Message Maker Kit (Cellscript, USA) or HiScribe T7 ARCA mRNA Kit (New England Biolabs).
Two-electrode voltage–clamp (TEVC) studies were performed in Xenopus oocytes. All animal use conformed to the Guide for the Care and Use of Laboratory Animals (NIH Publication 85–23), and all experiments using Xenopus toads were approved by the local ethics panels. Oocytes were stored at 17 °C in ND96 recording solution composed of (in mM): 96 NaCl, 2 KCl, 1.8 CaCl2, 1 MgCl2, 5 HEPES (pH 7.5 adjusted with NaOH and HCl), supplemented with Na-pyruvate (275 mg L^–1), theophylline (90 mg L^–1) and gentamicin (50 mg L^–1). Oocytes were injected with 1 ng mRNA for WT or mutant channels, and were incubated for 24–48 h at 17 °C. Two-electrode voltage clamp recordings were then performed as previously described[42],[43]. For macroscopic patch–clamp measurements, oocytes were obtained as described above incubated at 17 °C in a solution containing (mM): 54 NaCl, 30 KCl, 2.4 NaHCO3, 0.82 MgSO4 ×7 H2O, 0.41 CaCl2, 0.33 Ca(NO3)2 ×4 H2O and 7.5 TRIS (pH 7.4 adjusted with NaOH and HCl) for 1–4 days before use. Excised patch recordings in inside-out configuration conditions were performed at room temperature. Patch pipettes were made from thick-walled borosilicate glass GB 200TF-8P (Science Products), had resistances of 0.2–0.5 MΩ (tip diameter, 10–25 µm) and filled with a pipette solution (in mM): 120 KCl, 10 HEPES and 3.6 CaCl2 (pH 7.4 adjusted with KOH and HCl). Intracellular bath solutions and compounds were applied to the cytoplasmic side of excised patches for the various K^+ channels through a gravity flow multi-barrel pipette system. The intracellular solution had the following composition (in mM): 120 KCl, 10 HEPES, 2 EGTA and 1 pyrophosphate (pH adjusted with KOH and HCl). Currents were recorded with an EPC10 amplifier (HEKA Electronics) and sampled at 10 kHz or higher, with filtering set to 3 kHz (–3 dB) or higher, as appropriate for sampling rate. For measurements of GPCR activation, whole-cell currents were recorded for THIK-1 in transiently transfected HEK-293 cells. Cells were stimulated by a ramp protocol between −100 and +60 mV (holding potential, −80 mV). The pipette solution was composed of (in mM): 140 KCl, 2 MgCl2, 1 CaCl2, 2.5 EGTA and 10 HEPES (pH 7.3 adjusted with KOH and HCl). The extracellular bath solution had the following composition (in mM): 135 NaCl, 5 KCl, 2 MgCl2, 2 CaCl2, 10 glucose and 10 HEPES pH (pH 7.3 adjusted with NaOH and HCl). Oxotremorine M (Oxo-M) was added to extracellular bath solution to obtain the final concentration. Single-channel currents were recorded with an Axopatch 200B amplifier through a Digidata 1440A digitizer (Molecular Devices). Data were filtered at 2 kHz and recorded at a 200-kHz sampling rate with the program Clampex (Molecular Devices). Pipette solution and bath solution for cell-attached recordings contained (in mM): 140 KCl, 2 MgCl2, 1 CaCl2 and 10 HEPES (pH 7.4 adjusted with KOH and HCl). For inside-out recordings, the bath solution contained (in mM): 140 KCl, 2 MgCl2, 1 CaCl2 and 10 HEPES (pH 7.2 adjusted with KOH and HCl). All experiments were conducted at room temperature. […]

[2] = molecular target: T2, THIK-1 N261A (Homo sapiens, UniProt Q9HB14, N261A); experiment: Inside-out excised patch recordings, oocytes, THIK-1 N261A mutant (lipid activation); type: cell-based; settings: read-out: Linoleic acid EC50
T2 construct: expressed in transfected cells; host or cells: Xenopus oocytes (mRNA injection)
Description: Supplement 41594_2025_1497_MOESM2_ESM.xlsx, sheet "ExtData_Fig_S5f" | column: Linoleic acid EC50 (µM); N261A

T2 sequence (Q9HB14 whole entry N261A): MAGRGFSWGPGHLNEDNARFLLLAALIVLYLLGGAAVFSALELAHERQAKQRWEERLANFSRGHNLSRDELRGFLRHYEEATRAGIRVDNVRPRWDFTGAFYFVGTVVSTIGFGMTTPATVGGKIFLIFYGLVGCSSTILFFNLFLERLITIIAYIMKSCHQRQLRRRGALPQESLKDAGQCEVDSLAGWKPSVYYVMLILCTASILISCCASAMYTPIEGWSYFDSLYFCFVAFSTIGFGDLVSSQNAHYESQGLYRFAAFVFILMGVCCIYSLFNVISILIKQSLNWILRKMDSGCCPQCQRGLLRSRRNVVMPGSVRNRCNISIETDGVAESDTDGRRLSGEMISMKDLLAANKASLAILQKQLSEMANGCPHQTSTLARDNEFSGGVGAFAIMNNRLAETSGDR

Compound: CCCCC[N+](CCCCC)(CCCCC)CCCCC [TPenA, tetrapentylammonium]
Normalized currents ([1]; THIK-1 T110A, 15.6 µM TPenA): 1.00 | Normalized currents ([1]; THIK-1 T110A, 62.5 µM TPenA): 0.95 | Normalized currents ([1]; THIK-1 T110A, 250 µM TPenA): 0.81 | Normalized currents ([1]; THIK-1 T110A, 1000 µM TPenA): 0.57 | Normalized currents ([1]; THIK-1 T110A, 4000 µM TPenA): 0.28 | IC50 ([1]; TPenA IC50, T110A mutant): 1280 µM | IC50 ([1]; TPenA IC50, THIK-1 T110A, individual recordings): 583 µM and 1570 µM and 596 µM and 1530 µM and 2420 µM and 1850 µM and 1140 µM and 1600 µM and 1210 µM and 982 µM and 651 µM | IC50 ([1]; TPenA IC50, THIK-1 T110A, mean): 1280 µM

inhibition at 152 µM ([1]; halothane 0.152 mM, THIK-1 T110A): 9.23% | inhibition at 304 µM ([1]; halothane 0.304 mM, THIK-1 T110A): 14.1% | inhibition at 1520 µM ([1]; halothane 1.52 mM, THIK-1 T110A): 45.3% | inhibition at 3040 µM ([1]; halothane 3.04 mM, THIK-1 T110A): 63.5% | inhibition at 15200 µM ([1]; halothane 15.2 mM, THIK-1 T110A): 89.5%
Compound: FC(F)(F)C(Cl)Br (stereo not shown) [halothane]
Inhibition (%) ([1]; 3.0 mM halothane, T110A, individual recordings): 71.250% and 68.098% and 66.319% and 64.813% and 55.507% and 41.148% and 63.240% and 65.945% and 75.271%

EC50 ([2]; individual recordings): 92.8 µM and 196 µM and 39.8 µM and 91.8 µM and 102 µM and 140 µM | EC50 ([2]; mean): 110 µM
Compound: CCCCC/C=C\C/C=C\CCCCCCCC(=O)O [linoleic acid]
